Experimental data reported in US4477446A, “1-Benzazepines and their pharmaceutical uses” (USV Pharmaceutical Corporation, priority 1983, dated 1984).
Where two headings read alike, the source gives them in different places.

Experiments:
[1] = target: T1, binding of IgE to mast cells (cellular receptor) (Rattus norvegicus, UniProt P12371); experiment: Binding of IgE to mast cells (125I-labelled rat IgE, mixed peritoneal cells)
T1 construct: endogenous in cells; host or cells: mixed peritoneal cells (containing mast cells)
T1 sequence (P12371 24-245): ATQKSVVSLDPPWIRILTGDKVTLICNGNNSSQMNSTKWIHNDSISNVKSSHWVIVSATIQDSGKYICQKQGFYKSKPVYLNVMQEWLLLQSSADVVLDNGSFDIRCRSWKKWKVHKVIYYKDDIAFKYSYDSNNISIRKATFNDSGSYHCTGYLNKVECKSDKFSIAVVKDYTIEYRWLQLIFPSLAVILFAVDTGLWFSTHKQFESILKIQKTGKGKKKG
T1 sequence (P13386 1-243 partner): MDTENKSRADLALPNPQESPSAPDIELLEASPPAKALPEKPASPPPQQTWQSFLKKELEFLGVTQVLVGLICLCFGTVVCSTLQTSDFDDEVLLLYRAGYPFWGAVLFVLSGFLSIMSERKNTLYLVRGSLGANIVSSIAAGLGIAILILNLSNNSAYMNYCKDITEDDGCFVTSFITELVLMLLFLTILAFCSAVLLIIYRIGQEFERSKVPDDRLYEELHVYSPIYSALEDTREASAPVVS
T1 sequence (P20411 19-86 partner): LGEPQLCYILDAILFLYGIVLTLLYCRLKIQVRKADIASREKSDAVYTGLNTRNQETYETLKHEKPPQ
Procedure: The test used to determine this activity was the method of S. M. Coutts et al. (Journal of Pharm. Sci., 68:353 (1979)). Briefly described, the method is as follows:
IgE, isolated from the ascitic fluid of a transplantable rat IgE immunocytoma, was labeled with iodine-125 under mild conditions employing the Bolton-Hunter reagent. The antibody was incubated with mixed peritoneal cells at 37° C., and the cell-bound IgE was separated from unbound label by sedimentation through an 8% sucrose-polymer solution in microsediment tubes. Conditions for the interaction of 3nM IgE with 3×10^5 mast cells in 150 μl were: incubation time, 2 hrs; pH, 6.5-7.0; and ionic strength, equivalent to 150 mM NaCl. Mixed peritoneal cells bind IgE with an affinity equal to that of purified mast cells.

[2] = test system: rat peritoneal mast cells; experiment: Inhibition of histamine release from rat mast cells; type: cell-based; conditions: for IC50: Rattus norvegicus, Mast cell, read-out: I50 of antigen-induced secretion of histamine
Procedure: The compound of the present invention was also tested for inhibition of histamine release from rat mast cells by the method of Khandwala et al., Int. Archs Allergy appl. Immun. 69:159-168 (1982). Rat peritoneal mast cells contain receptors for IgE antibodies as well as granules which contain preformed mediators of anaphylaxis. Immunologically stimulated secretion of histamine from these cells has long been used as a model for testing antiallergic drugs. The standard asthma prophylactic drug disodium cromoglycate is a potent inhibitor in this model. A brief summary of the method is as follows:
Freshly harvested rat peritoneal mast cells were passively sensitized in vitro with rat anti-ovalbumin serum. Spontaneous histamine release or SR (in the absence of antigen) and anaphylactically-induced histamine release or AIR (in the presence of antigen) were measured after 15 minutes of incubation. Both the histamine released into the incubation medium and the residual histamine extracted from rat mast cells were measured fluorometrically.

[3] = test system: human basophils; experiment: Inhibition of histamine release from human basophils; type: cell-based; conditions: 5 minutes preincubation before anti-human IgE challenge; read-out: calculated concentration at which 50% of anti-IgE-induced histamine release was inhibited
Procedure: 1H-benz(f)azepine-2,5-dione was also tested by a method which measures inhibition of histamine release from human basophils. The basophil is a circulating granulocyte that contains preformed mediators of anaphylaxis. These mediators are secreted after immunological stimulation of the IgE-Fc receptor system. The human basophil has thus been employed as a model cell system for asthma and allergy. The effect of the compound upon anti-IgE-medicated secretion of histamine from human basophils prepared from venous blood was carried out according to Siraganian, R. and Brodsky, M. J., Automated Histamine Analysis for in vitro testing, J. Allergy Clin. Immunol. 57:525-540 (1976). The summary of the method follows:
A fraction containing basophils was isolated by allowing freshly drawn human blood to sediment in the presence of dextran, saline and ethylenediamine tetraacetate. […] Both the histamine secreted after the challenge and that remaining in the cells were determined by an automated fluorometric assay. The influence of 1H-benz(f)azepine-2,5-dione on anti-IgE-induced release of histamine (AIR) was assessed by preincubation of the cells with the test compound for 5 minutes before immunological challenge. […] The results were expressed as the percent inhibition of AIR or as I50 value.

[4] = test system: guinea pig lung slices; experiment: Inhibition of histamine release from guinea pig lung slices; type: cell-based; conditions: Cavia porcellus; passively sensitized lung slices, 5 minutes preincubation; read-out: concentration at which 50% of antigen-induced histamine release was inhibited (I50)
From the text: 1H-benz(f)azepine-2,5-dione was also found to inhibit histamine-release from guinea pig lung slices over a wide concentration range. Immunologically mediated secretion of histamine from guinea pig lung slices is mediated through the IgG1 class of antibodies, as opposed to the IgE-class of antibodies which control secretion from rat mast cells. The affect of the compound of the present invention on antigen-induced release of histamine from passively sensitized guinea pig lung slices was determined according to the procedure of Khandwala et al., Int. Archs. Allergy Appl. Immunol. 59:34-44(1979). A brief description of the method follows:
Guinea pig lung slices were passively sensitized in vitro with guinea pig anti-ovalbumin serum. […] Both the histamine released into the incubation media and the residual histamine extracted from the lung slices were measured fluorometrically. Both spontaneous and antigen-induced histamine releases were expressed as % of total extractable histamine in the lung slices. Net antigen-induced histamine release (AIR) was obtained by subtracting the spontaneous release from that in the presence of the antigen. The effect of the test compound on both SR and AIR was determined following 5 minutes preincubation of sensitized lung slices with the test compound. The concentration of the test compound required for 50% inhibition of AIR (I50) was determined.

[5] = 0 h, compound added simultaneously (at 0 minutes) with antigen
[6] = cells and drug preincubated for 5 minutes before adding antigen

| SMILES | IC50 ([1]; 3 nM IgE, 3×10^5 mast cells, 2 hrs, 37° C., read-out: concentration at which 50% inhibition of IgE binding was observed (I50)) | inhibition at 30 µM ([1]; 30 μM, average of two experiments) | apparent affinity constant KA of IgE for its cellular receptor ([1]; in presence of 30 μM test compound, control KA 4.4×10^8 M^-1, Scatchard analysis) | IC50 [2, 5] | IC50 [2, 6] | IC50 [3] | IC50 [4] | I50 of antigen-induced secretion of histamine [2, 6] |
| --- | --- | --- | --- | --- | --- | --- | --- | --- |
| O=c1ccc(=O)c2ccccc2[nH]1 [1H-benz(f)azepine-2,5-dione, 1H-Benz(f)azepine-2,5-dione] | 12 µM | 70% | 9.4e+07 M⁻¹ | 1.8 µM | 5 µM | 2 µM | 20 µM |  |
| O=C(O)c1cc(=O)c2c(OCC(O)COc3cccc4oc(C(=O)O)cc(=O)c34)cccc2o1 [disodium cromoglycate, reference compound] |  |  |  | 3 µM |  |  |  | inactive |
